Source: patent publication US7645758B2, “Heterocyclic compounds” (Janssen Pharmaceutica, N.Y., priority 2002, dated 2010)
Where two headings read alike, the source gives them in different places.

Columns and labels:
[1] = target: T1, human histamine H4 receptor (Homo sapiens, UniProt Q9H3N8); assay: Binding assay on recombinant human histamine H4 receptor
T1 construct: expressed in transfected cells; host or cells: SK-N-MC or COS7 cells, transiently transfected with pH4R; cell membranes

Mast cells = assay: Mast cell chemotaxis assay; type: cell-based; details: 10 μM Histamine
Experimental: Mast Cell Chemotaxis Assay
Mast cell accumulation in mucosal epithelia is a well-known characteristic of allergic rhinitis and asthma. Transwells (Costar, Cambridge, Mass.) of a pore size 8 μm were coated with 100 μL of 100 ng/mL human fibronectin (Sigma) for 2 h at room temperature. […] Mast cells (2×10^5/well) were added to the top chamber. The plates were incubated for 3 h at 37° C. Transwells were removed and the cells in the bottom chamber were counted for sixty seconds using a flow cytometer.

human eosinophils = assay: Inhibition of eosinophil shape change (GAFS); type: cell-based; details: for effect on histamine-induced shape change: H1 or H2 specific antagonist
Experimental: Eosinophil accumulation in sites of allergic reaction is a well-known characteristic of allergic rhinitis and asthma. […] Shape change is a cellular characteristic that precedes eosinophil chemotaxis.
Human granulocytes were isolated from human blood by a Ficoll gradient. The red blood cells were lysed with 5-10× Qiagen lysis buffer at room temperature for 5-7 min. Granulocytes were harvested and washed once with FACS buffer. The cells were resuspended at a density of 2×10^6 cells/mL in reaction buffer. […] Ten minutes later the cells were transferred to ice and fixed with 250 μL of ice-cold fixative buffer (2% formaldehyde) for 1 min.

[2] = 3H-histamine competition, membranes of SK-N-MC or COS7 cells expressing human H4, read-out: Ki
[3] = repeated in the chemotaxis table, read-out: Binding Assay Ki
[4] = Histamine 0 μM, 10 μM HR antagonist
[5] = Histamine 0.01 μM, 10 μM HR antagonist
[6] = Histamine 0.1 μM, 10 μM HR antagonist
[7] = Histamine 1 μM, 10 μM HR antagonist
[8] = Histamine 10 μM, 10 μM HR antagonist

T1 sequence (Q9H3N8 whole entry): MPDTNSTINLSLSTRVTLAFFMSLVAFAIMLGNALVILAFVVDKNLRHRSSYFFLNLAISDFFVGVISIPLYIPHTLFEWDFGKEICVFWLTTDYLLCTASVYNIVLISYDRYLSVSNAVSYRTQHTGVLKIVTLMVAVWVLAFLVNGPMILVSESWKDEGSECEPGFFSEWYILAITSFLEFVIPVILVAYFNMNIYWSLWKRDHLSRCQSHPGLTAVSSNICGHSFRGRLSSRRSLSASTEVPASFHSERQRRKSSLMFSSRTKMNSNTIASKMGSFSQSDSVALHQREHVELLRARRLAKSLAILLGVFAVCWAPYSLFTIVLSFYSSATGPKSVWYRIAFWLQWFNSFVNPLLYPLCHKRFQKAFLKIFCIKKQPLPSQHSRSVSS

CN1CCN(C(=O)c2cc3ccsc3[nH]2)CC1 [Example 1, (4-Methyl-piperazin-1-yl)-(6H-thieno[2,3-b]pyrrol-5-yl)-methanone]
Ki [1, 2]: 85 nM

O=C(c1cc2ccsc2[nH]1)N1CCN2CCCC2C1 (stereo not shown) [Example 2, (Hexahydro-pyrrolo[1,2-a]pyrazin-2-yl)-(6H-thieno[2,3-b]pyrrol-5-yl)-methanone]
Ki [1, 2]: 461 nM

CN1CCN(C(=O)c2cc3cc(Cl)sc3[nH]2)CC1 [Example 3, (2-Chloro-6H-thieno[2,3-b]pyrrol-5-yl)-(4-methyl-piperazin-1-yl)-methanone]
Ki [1, 2]: 25 nM | Ki [1, 3]: 25 nM

O=C(c1cc2cc(Cl)sc2[nH]1)N1CCN2CCCC2C1 (stereo not shown) [Example 4, (2-Chloro-6H-thieno[2,3-b]pyrrol-5-yl)-(hexahydro-pyrrolo[1,2-a]pyrazin-2-yl)-methanone]
Ki [1, 2]: 176 nM | Ki [1, 3]: 176 nM | % Inh (Mast cells; HR Antagonist 1 μM): <5% | % Inh (Mast cells; HR Antagonist 10 μM): <5%

O=C(c1cc2cc(Cl)sc2[nH]1)N1CCNCC1 [Example 5, (2-Chloro-6H-thieno[2,3-b]pyrrol-5-yl)-piperazin-1-yl-methanone]
Ki [1, 2]: 56 nM

CN1CCN(C(=O)c2cc3occc3[nH]2)CC1 [Example 6, (4H-Furo[3,2-b]pyrrol-5-yl)-(4-methyl-piperazin-1-yl)-methanone]
Ki [1, 2]: 840 nM

CN1CCN(C(=O)c2cc3sccc3[nH]2)CC1 [Example 7, (4-Methyl-piperazin-1-yl)-(4H-thieno[3,2-b]pyrrol-5-yl)-methanone]
Ki [1, 2]: 125 nM

O=C(c1cc2sccc2[nH]1)N1CCNCC1 [Example 8, Piperazin-1-yl-(4H-thieno[3,2-b]pyrrol-5-yl)-methanone]
Ki [1, 2]: 343 nM

CC1CN(C(=O)c2cc3sccc3[nH]2)CCN1 (stereo not shown) [Example 9, (3-Methyl-piperazin-1-yl)-(4H-thieno[3,2-b]pyrrol-5-yl)-methanone]
Ki [1, 2]: 733 nM

CN1CCN(C(=O)c2cc3sc(Cl)cc3[nH]2)CC1 [Example 10, (2-Chloro-4H-thieno[3,2-b]pyrrol-5-yl)-(4-methyl-piperazin-1-yl)-methanone]
Ki [1, 2]: 40 nM | Ki [1, 3]: 40 nM

O=C(c1cc2sc(Cl)cc2[nH]1)N1CCN2CCCC2C1 (stereo not shown) [Example 11, (2-Chloro-4H-thieno[3,2-b]pyrrol-5-yl)-(hexahydro-pyrrolo[1,2-a]pyrazin-2-yl)-methanone]
Ki [1, 2]: 715 nM

CN1CCN(C(=O)c2cc3scc(Br)c3[nH]2)CC1 [Example 12, (3-Bromo-4H-thieno[3,2-b]pyrrol-5-yl)-(4-methyl-piperazin-1-yl)-methanone]
Ki [1, 2]: 56 nM

Cc1csc2cc(C(=O)N3CCN(C)CC3)[nH]c12 [Example 13, (4-Methyl-piperazin-1-yl)-(3-methyl-4H-thieno[3,2-b]pyrrol-5-yl)-methanone]
Ki [1, 2]: 21 nM | Ki [1, 3]: 21 nM | % Inh (Mast cells; HR Antagonist 1 μM): 60%

Cc1cc2[nH]c(C(=O)N3CCN(C)CC3)cc2o1 [Example 14, (2-Methyl-4H-furo[3,2-b]pyrrol-5-yl)-(4-methyl-piperazin-1-yl)-methanone]
Ki [1, 2]: 343 nM

Cc1oc2cc(C(=O)N3CCN(C)CC3)[nH]c2c1C [Example 15, (2,3-Dimethyl-4H-furo[3,2-b]pyrrol-5-yl)-(4-methyl-piperazin-1-yl)-methanone]
Ki [1, 2]: 140 nM

Cc1sc2cc(C(=O)N3CCN(C)CC3)[nH]c2c1C [Example 16, (2,3-Dimethyl-4H-thieno[3,2-b]pyrrol-5-yl)-(4-methyl-piperazin-1-yl)-methanone]
Ki [1, 2]: 5 nM

CN1CCN(C(=O)c2cc3c(Cl)c(Cl)sc3[nH]2)CC1 [Example 17, (2,3-Dichloro-6H-thieno[2,3-b]pyrrol-5-yl)-(4-methyl-piperazin-1-yl)-methanone]
Ki [1, 2]: 10 nM

Cc1cc2[nH]c(C(=O)N3CCNCC3)cc2o1 [Example 18, (2-Methyl-4H-furo[3,2-b]pyrrol-5-yl)-piperazin-1-yl-methanone]
Ki [1, 2]: 770 nM

O=C(c1cc2scc(Br)c2[nH]1)N1CCNCC1 [Example 19, (3-Bromo-4H-thieno[3,2-b]pyrrol-5-yl)-piperazin-1-yl-methanone]
Ki [1, 2]: 410 nM

CC1CN(C(=O)c2cc3scc(Br)c3[nH]2)CCN1 (stereo not shown) [Example 20, (3-Bromo-4H-thieno[3,2-b]pyrrol-5-yl)-(3-methyl-piperazin-1-yl)-methanone]
Ki [1, 2]: 980 nM | Ki [1, 3]: 980 nM | % Inh (Mast cells; HR Antagonist 1 μM): <5% | % Inh (Mast cells; HR Antagonist 10 μM): <5%

Cc1csc2cc(C(=O)N3CCNCC3)[nH]c12 [Example 21, (3-Methyl-4H-thieno[3,2-b]pyrrol-5-yl)-piperazin-1-yl-methanone]
Ki [1, 2]: 80 nM

Cc1csc2cc(C(=O)N3CCNC(C)C3)[nH]c12 (stereo not shown) [Example 22, (3-Methyl-piperazin-1-yl)-(3-methyl-4H-thieno[3,2-b]pyrrol-5-yl)-methanone]
Ki [1, 2]: 161 nM

Cc1c(Cl)sc2cc(C(=O)N3CCN(C)CC3)[nH]c12 [Example 23, (2-Chloro-3-methyl-4H-thieno[3,2-b]pyrrol-5-yl)-(4-methyl-piperazin-1-yl)-methanone]
Ki [1, 2]: 3 nM

Cc1c(Cl)sc2cc(C(=O)N3CCNCC3)[nH]c12 [Example 24, (2-Chloro-3-methyl-4H-thieno[3,2-b]pyrrol-5-yl)-piperazin-1-yl-methanone]
Ki [1, 2]: 30 nM

CN1CCN(C(=O)c2cc3sc(Cl)c(Cl)c3[nH]2)CC1 [Example 25, (2,3-Dichloro-4H-thieno[3,2-b]pyrrol-5-yl)-(4-methyl-piperazin-1-yl)-methanone]
Ki [1, 2]: 5.5 nM

NCCc1c[nH]cn1 [Histamine, histamine]
Fold Change (human eosinophils; Histamine 0.01 μM, No HR Antagonist): 1.01 | Fold Change (human eosinophils; Histamine 0.1 μM, No HR Antagonist): 1.21 | Fold Change (human eosinophils; Histamine 1 μM, No HR Antagonist): 1.31 | Fold Change (human eosinophils; Histamine 10 μM, No HR Antagonist): 1.34 | shape change in eosinophils (human eosinophils; histamine alone): induces a dose-dependent shape change

CN(C)CCOC(c1ccccc1)c1ccccc1 [diphenhydramine]
effect on histamine-induced shape change (human eosinophils): did not alter | Fold Change (human eosinophils; [4]): 1.00 | Fold Change (human eosinophils; [5]): 1.03 | Fold Change (human eosinophils; [6]): 1.18 | Fold Change (human eosinophils; [7]): 1.50 | Fold Change (human eosinophils; [8]): 1.63

CNC(=C[N+](=O)[O-])NCCSCc1ccc(CN(C)C)o1 [ranatidine]
effect on histamine-induced shape change (human eosinophils): did not alter | Fold Change (human eosinophils; [4]): 1.00 | Fold Change (human eosinophils; [5]): 1.04 | Fold Change (human eosinophils; [6]): 1.21 | Fold Change (human eosinophils; [7]): 1.49 | Fold Change (human eosinophils; [8]): 1.64
